# Measurements published in patent US10208071B2, “Use of agonists of formyl peptide receptor 2 for treating ocular inflammatory diseases” (Allergan, Inc., priority 2013, dated 2019).
# Where two headings read alike, the source gives them in different places.
# Target: FPR2 (Homo sapiens (Human), UniProt P25090)
# Experiment: FLIPR Ca+2 response, HEK-Gα16 cells stably expressing the human FPR2 receptor (Table 4)
# Assay type: cell-based
# Settings: for FPR2 (efficacy): efficacy in parentheses
# Method: FLIPR: HEK-Gα16 cells stably expressing the human FPR2 receptor was utilized. Cells were plated into 384-well poly-D-lysine coated plates at a density of 18,000 cells per well one day prior to use. The growth media was DMEM medium supplemented with 10% fetal bovine serum (FBS), 1% antibiotic-antimycotic, 50 μg/ml hygromycin, and 400 μg/ml geneticin. On the day of the experiment, the cells were washed twice with Hank's Balanced Salt Solution supplemented with 20 mM HEPES (HBSS/hepes buffer). The cells were then dye loaded with 2 μM Fluo-4 diluted in the HBSS/Hepes buffer and incubated at 37° C. for 40 minutes. Extracellular dye was removed by washing the cell plates four times prior to placing the plates in the FLIPR (Fluorometric Imaging Plate Reader, Molecular Devices). Ligands were diluted in HBSS/Hepes buffer and prepared in 384-well microplates. Data for Ca^+2 responses were obtained in relative fluorescence units.
# Sequence of FPR2 (P25090 whole entry): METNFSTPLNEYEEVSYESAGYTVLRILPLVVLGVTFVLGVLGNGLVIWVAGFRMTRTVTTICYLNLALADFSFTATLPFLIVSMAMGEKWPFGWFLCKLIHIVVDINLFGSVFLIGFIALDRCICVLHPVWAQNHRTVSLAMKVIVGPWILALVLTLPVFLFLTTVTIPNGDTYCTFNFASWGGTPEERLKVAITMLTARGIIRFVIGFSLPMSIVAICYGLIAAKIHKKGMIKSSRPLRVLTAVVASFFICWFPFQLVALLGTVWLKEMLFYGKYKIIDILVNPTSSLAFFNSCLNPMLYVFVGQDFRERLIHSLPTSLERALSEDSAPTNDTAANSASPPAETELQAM
Structure (SMILES),FPR2 (efficacy),EC50,EC50 (unit inferred)
"CSc1ccc(NC(=O)Nc2ccc3c(c2)C(=O)N(CCc2c[nH]cn2)C(c2ccc(Cl)cn2)C3)cc1 (stereo not shown) [Compound 32, 1-{3-(5-chloropyridin-2-yl)-2-[2-(1H-imidazol-4-yl)ethyl]-1-oxo-1,2,3,4-tetrahydroisoquinolin-7-yl}-3-[4-(methylsulfanyl)phenyl]urea]",nM (0.91),,
"NC(=O)C1C(C(=O)Nc2ccc(Br)cc2)C2CCC1C21CC1 (stereo not shown) [Compound 30, N-(4-bromophenyl) spiro[bicyclo[2.2.1]heptane-7,1′-cyclopropane]-2,3-dicarboxamide]",nM (0.96),2.5 nM,
"CC(C)CC(C)(NC(=O)Nc1ccc(Br)cc1)C(=O)NCC(=O)O (stereo not shown) [Compound 111, [(2-{[(4-bromophenyl)carbamoyl]amino}-2,4-dimethylpentanoyl)amino] acetic acid]",nM (0.99),19.1 nM,
CCC(CC)(NC(=O)Nc1ccc(Br)cc1)C(=O)NCC(=O)O [Compound 113],nM (1.0),18.7 nM,
"CC1(CCc2cccs2)NC(=O)N(NC(=O)Nc2ccc(Br)cc2)C1=O (stereo not shown) [Compound 88, 1-(4-bromophenyl)-3-{4-methyl-2,5-dioxo-4-[2-(thiophen-2-yl)ethyl]imidazolidin-1-yl}urea]",nM (0.94),,
"CCOP(=O)(O)CNC(=O)[C@H](CC(C)C)NC(=O)Nc1ccc(Br)cc1 [Compound 105, ethyl hydrogen ({[(2S)-2-{[(4-bromophenyl)carbamoyl]amino}-4-methylpentanoyl]amino}methyl)phosphonate]",nM (0.88),,
"O=C(O)C1C(C(=O)Nc2ccc(I)cc2)C2C=CC1C21CC1 (stereo not shown) [Compound 11, 3-[(4-iodophenyl)carbamoyl] spiro[bicyclo[2.2.1]heptane-7,1′-cyclopropane]-5-ene-2-carboxylic acid]",nM (1.00),1.6 nM,
"NC(=O)C1C(C(=O)Nc2ccc(I)cc2)C2CCC1C21CC1 (stereo not shown) [Compound 38, N-(4-iodophenyl) spiro[bicyclo[2.2.1]heptane-7,1′-cyclopropane]-2,3-dicarboxamide]",nM (0.95),1.9 nM,
"CCC1(CCc2ccccc2)NC(=O)N(NC(=O)Nc2ccc(Br)cc2F)C1=O (stereo not shown) [Compound 69, 1-(4-bromo-2-fluorophenyl)-3-[4-ethyl-2,5-dioxo-4-(2-phenylethyl)imidazolidin-1-yl]urea]",nM (0.91),13.4 nM,
"CCC[C@H](NC(=O)Nc1ccc(Br)cc1F)C(=O)NCC(=O)O [Compound 74, {[(2S)-2-+{[(4-bromo-2-fluorophenyl)carbamoyl]amino}pentanoyl]amino}acetic acid]",nM (0.91),4.1 nM,
"CS(=O)(=O)c1ccc(NC(=O)Nc2ccc3c(c2)C(=O)N(CCc2c[nH]cn2)C(c2ccc(F)cn2)C3)cc1 (stereo not shown) [Compound 25, 1-{3-(5-fluoropyridin-2-yl)-2-[2-(1H-imidazol-4-yl)ethyl]-1-oxo-1,2,3,4-tetrahydroisoquinolin-7-yl}-3-[4-(methylsulfonyl)phenyl]urea]",nM (1.0),,
"CC(C)C[C@H](NC(=O)Nc1ccc(Br)cc1)C(=O)NCC(=O)O [Compound 8, {[(2S)-2-{[(4-bromophenyl)carbamoyl]amino}-4-methylpentanoyl]amino}acetic acid]",(0.78),,
"CSc1ccc(NC(=O)Nc2ccc3c(c2)C(=O)N(CCCN)C(C)C3)cc1 (stereo not shown) [Compound 42, 1-[2-(3-aminopropyl)-3-methyl-1-oxo-1,2,3,4-tetrahydroisoquinolin-7-yl]-3-[4-(methylsulfanyl)phenyl]urea]",nM (1.00),,
"CC(C)C[C@H](NC(=O)Nc1ccc(Br)cc1F)C(=O)N[C@@H](C)C(=O)O [Compound 87, (2S)-2-{[(2S)-2-{[(4-bromo-2-fluorophenyl)carbamoyl]amino}-4-methylpentanoyl]amino} propanoic acid]",nM (0.95),12.1 nM,
"CC(C)C[C@H](NC(=O)Nc1ccc(Br)cc1)C(=O)NCc1cc(O)no1 [Compound 116, (2S)-2-{[(4-bromophenyl)carbamoyl]amino}-N-[(3-hydroxy-1,2-oxazol-5-yl)methyl]-4-methylpentanamide]",nM (1.0),,
"CC1(CCc2ccccc2O)NC(=O)N(NC(=O)Nc2ccc(Br)cc2F)C1=O (stereo not shown) [Compound 106, 1-(4-bromo-2-fluorophenyl)-3-{4-[2-(2-hydroxyphenyl)ethyl]-4-methyl-2,5-dioxoimidazolidin-1-yl}urea]",nM (0.91),4 nM,
"O=C(O)CNC(=O)[C@H](Cc1ccccc1)NC(=O)Nc1ccc(Br)cc1 [Compound 55, {[(2S)-2-{[(4-bromophenyl)carbamoyl]amino}-3-phenylpropanoyl]amino}acetic acid]",nM (0.99),,

Structure (SMILES),FPR2 (efficacy),EC50,EC50 (unit inferred)
"CC1(CCc2ccccc2)NC(=O)N(NC(=O)Nc2ccc(Br)cc2)C1=O (stereo not shown) [Compound 54, 1-(4-bromophenyl)-3-[4-methyl-2,5-dioxo-4-(2-phenylethyl)imidazolidin-1-yl]urea]",nM (0.87),,
"C[S+]([O-])c1ccc(NC(=O)Nc2ccc3c(c2)C(=O)N(CCCNC(=O)OC(C)(C)C)[C@@H](c2ccc(C#N)cc2)C3)cc1 (stereo partly drawn) [Compound 40, (+) tert-butyl {3-[(3R)-3-(4-cyanophenyl)-7-({[4-(methylsulfinyl)phenyl]carbamoyl}amino)-1-oxo-3,4-dihydroisoquinolin-2(1H)-yl]propyl}carbamate]",nM (0.91),103 nM,
"CC1(CCc2ccco2)NC(=O)N(NC(=O)Nc2ccc(Br)cc2)C1=O (stereo not shown) [Compound 76, 1-(4-bromophenyl)-3-{4-[2-(furan-2-yl)ethyl]-4-methyl-2,5-dioxoimidazolidin-1-yl}urea]",nM (0.99),5.2 nM,
"CC(C)C[C@H](NC(=O)Nc1ccc(Br)cc1)C(=O)N[C@H](C(=O)O)C(C)C [Compound 91, (2S)-2-{[(2S)-2-{[(4-bromophenyl)carbamoyl]amino}-4-methylpentanoyl]amino}-3-methylbutanoic acid]",nM (0.97),1.7 nM,
"CCC[C@H](NC(=O)Nc1ccc(Br)cc1)C(=O)NCC(=O)OC [Compound 72, methyl{[(2S)-2-{[(4-bromophenyl)carbamoyl]amino}pentanoyl]amino}acetate]",nM (0.86),16.4 nM,
"CC(C)=C1C2C=CC1C(C(=O)Nc1ccc(I)cc1)C2C(=O)O (stereo not shown) [Compound 20, 3-[(4-iodophenyl)carbamoyl]-7-(propan-2-ylidene)bicyclo[2.2.1]hept-5-ene-2-carboxylic acid]",nM (0.94),,
"CSc1ccc(NC(=O)Nc2ccc3c(c2)C(=O)N(CCc2c[nH]cn2)C(c2ccco2)C3)cc1 (stereo not shown) [Compound 23, 1-{3-(furan-2-yl)-2-[2-(1H-imidazol-4-yl)ethyl]-1-oxo-1,2,3,4-tetrahydroisoquinolin-7-yl}-3-[4-(methylsulfanyl)phenyl]urea]",nM (0.83),,
"CCOP(=O)(CNC(=O)[C@@H](NC(=O)Nc1ccc(Br)cc1)[C@@H](C)CC)OCC [Compound 114, diethyl ({[(2S,3S)-2-{[(4-bromophenyl)carbamoyl]amino}-3-methylpentanoyl]amino}methyl)phosphonate]",nM (1.0),2.9 nM,
"CSc1ccc(NC(=O)C2C(C(N)=O)C3CCC2C3(C)C)cc1 (stereo not shown) [Compound 37, 7,7-dimethyl-N-[4-(methylsulfanyl)phenyl]bicyclo[2.2.1]heptane-2,3-dicarboxamide]",nM (0.85),17 nM,
"CC(C)C[C@H](NC(=O)Nc1ccc(Br)cc1)C(=O)O [Compound 9, (2S)-2-{[(4-bromophenyl)carbamoyl]amino}-4-methylpentanoic acid]",(0.77),,5.95 nM
"CCC[C@H](NC(=O)[C@H](CC(C)C)NC(=O)Nc1ccc(Br)cc1)C(=O)O [Compound 101, (2S)-2-{[(2S)-2-{[(4-bromophenyl)carbamoyl]amino}-4-methylpentanoyl]amino} pentanoic acid]",nM (0.95),,
"CCC[C@H](NC(=O)Nc1ccc(Br)cc1)C(=O)NCC(N)=O [Compound 79, (2S)-N-(2-amino-2-oxoethyl)-2-{[(4-bromophenyl)carbamoyl]amino} pentanamide]",nM (0.97),,
"CCOP(=O)(CCNC(=O)CC1(C(C)C)NC(=O)N(NC(=O)Nc2ccc(Br)cc2)C1=O)OCC (stereo not shown) [Compound 152, diethyl [2-({[1-{[(4-bromophenyl)carbamoyl]amino}-2,5-dioxo-4-(propan-2-yl)imidazolidin-4-yl]acetyl}amino)ethyl] phosphonate]",nM (1.0),11 nM,
"CCC(C)[C@@H](NC(=O)Nc1ccc(Br)cc1)C(=O)O (stereo in doubt) [Compound 122, (2R,3R)-2-{[(4-bromophenyl)carbamoyl]amino}-3-methylpentanoic acid]",μM (0.59),,
"Cc1ccc(CCC2(C)NC(=O)N(NC(=O)Nc3ccc(Br)cc3)C2=O)o1 (stereo not shown) [Compound 97, 1-(4-bromophenyl)-3-{4-methyl-4-[2-(5-methylfuran-2-yl)ethyl]-2,5-dioxoimidazolidin-1-yl}urea]",nM (0.95),,
"O=C(O)CCNC(=O)[C@H](Cc1ccccc1)NC(=O)Nc1ccc(Br)cc1 [Compound 56, 3-{[(2S)-2-{[(4-bromophenyl)carbamoyl]amino}-3-phenylpropanoyl]amino} propanoic acid]",nM (0.98),,
"CC[C@H](C)[C@H](NC(=O)Nc1ccc(Br)cc1F)C(=O)O [Compound 5, (2S,3S)-2-{[(4-bromo-2-fluorophenyl)carbamoyl]amino}-3-methylpentanoic acid]",(0.96),,31 nM
